Assay results taken from the NIST ThermoML archive (doi:10.1021/je060371g).
± gives the expanded uncertainty stated by the source.

Conditions: Fluid (supercritical or subcritical phases), Buoyancy - hydrostatic balance with magnetic suspension - one sinker

FC(F)Cl [chlorodifluoromethane]
specific volume [m3/kg]
Conditions	298.2 K	323.2 K	348.2 K	373.2 K	423.2 K	473.2 K	523.2 K	573.2 K
10000 kPa	0.000815 ± 7e-06	0.00087 ± 7e-06	0.000955 ± 8e-06	0.001091 ± 1.4e-05	0.002006 ± 4.1e-05	0.003216 ± 6.8e-05	0.004117 ± 9.3e-05	0.004957 ± 0.00011
20000 kPa	0.000787 ± 6e-06	0.000831 ± 7e-06	0.000887 ± 7e-06	0.000967 ± 9e-06	0.001169 ± 2.2e-05	0.001531 ± 4.2e-05	0.001932 ± 5.6e-05	0.00244 ± 6.7e-05
30000 kPa	0.000771 ± 6e-06	0.00081 ± 7e-06	0.000852 ± 7e-06	0.000907 ± 8e-06	0.001037 ± 9e-06	0.00121 ± 1.3e-05	0.001431 ± 1.8e-05	0.001751 ± 2.5e-05
40000 kPa	0.000755 ± 6e-06	0.00079 ± 6e-06	0.000828 ± 7e-06	0.000875 ± 7e-06	0.000973 ± 8e-06	0.001089 ± 1e-05	0.001241 ± 1.2e-05	0.001393 ± 1.5e-05
50000 kPa	0.000743 ± 6e-06	0.000773 ± 6e-06	0.000807 ± 7e-06	0.000842 ± 7e-06	0.000923 ± 8e-06	0.001015 ± 8e-06	0.001126 ± 9e-06	0.001258 ± 1.1e-05
75000 kPa	0.000717 ± 6e-06	0.000743 ± 6e-06	0.000768 ± 6e-06	0.000797 ± 6e-06	0.000856 ± 7e-06	0.000922 ± 7e-06	0.000987 ± 8e-06	0.00105 ± 9e-06
100000 kPa	0.000698 ± 6e-06	0.000715 ± 6e-06	0.000742 ± 6e-06	0.000765 ± 6e-06	0.000814 ± 7e-06	0.000867 ± 7e-06	0.00092 ± 7e-06	0.000968 ± 8e-06
125000 kPa	0.000682 ± 5e-06	0.000699 ± 6e-06	0.000719 ± 6e-06	0.000741 ± 6e-06	0.000784 ± 6e-06	0.00083 ± 7e-06	0.000872 ± 7e-06	0.000911 ± 7e-06
150000 kPa	0.00067 ± 5e-06	0.000683 ± 5e-06	0.000701 ± 6e-06	0.000722 ± 6e-06	0.000759 ± 6e-06	0.000797 ± 6e-06	0.000835 ± 7e-06	0.00087 ± 7e-06
175000 kPa	0.000657 ± 5e-06	0.00067 ± 5e-06	0.000686 ± 6e-06	0.000705 ± 6e-06	0.000738 ± 6e-06	0.000772 ± 6e-06	0.000808 ± 7e-06	0.00084 ± 7e-06
200000 kPa	0.000646 ± 5e-06	0.00066 ± 5e-06	0.000674 ± 5e-06	0.000689 ± 6e-06	0.000721 ± 6e-06	0.000754 ± 6e-06	0.000785 ± 6e-06	0.000814 ± 7e-06
225000 kPa	0.000638 ± 5e-06	0.000651 ± 5e-06	0.000663 ± 5e-06	0.000677 ± 5e-06	0.000707 ± 6e-06	0.000735 ± 6e-06	0.000764 ± 6e-06	0.00079 ± 6e-06
250000 kPa	0.00063 ± 5e-06	0.000643 ± 5e-06	0.000655 ± 5e-06	0.000667 ± 5e-06	0.000695 ± 6e-06	0.00072 ± 6e-06	0.000744 ± 6e-06	0.000767 ± 6e-06
275000 kPa	0.000624 ± 5e-06	0.000635 ± 5e-06	0.000646 ± 5e-06	0.000658 ± 5e-06	0.000682 ± 5e-06	0.000705 ± 6e-06	0.000728 ± 6e-06	0.000749 ± 6e-06
300000 kPa	0.000617 ± 5e-06	0.000628 ± 5e-06	0.000639 ± 5e-06	0.00065 ± 5e-06	0.000673 ± 5e-06	0.000694 ± 6e-06	0.000714 ± 6e-06	0.000732 ± 6e-06
325000 kPa	0.000611 ± 5e-06	0.000621 ± 5e-06	0.000632 ± 5e-06	0.000642 ± 5e-06	0.000661 ± 5e-06	0.000683 ± 5e-06	0.000698 ± 6e-06	0.000717 ± 6e-06
350000 kPa	0.000606 ± 5e-06	0.000616 ± 5e-06	0.000625 ± 5e-06	0.000636 ± 5e-06	0.000655 ± 5e-06	0.000671 ± 5e-06	0.000687 ± 6e-06	0.000704 ± 6e-06
375000 kPa	0.0006 ± 5e-06	0.00061 ± 5e-06	0.000619 ± 5e-06	0.000629 ± 5e-06	0.000645 ± 5e-06	0.000661 ± 5e-06	0.000676 ± 5e-06	0.000692 ± 6e-06
400000 kPa	0.000596 ± 5e-06	0.000605 ± 5e-06	0.000614 ± 5e-06	0.000623 ± 5e-06	0.000638 ± 5e-06	0.000652 ± 5e-06	0.000666 ± 5e-06	0.00068 ± 5e-06
425000 kPa	0.000591 ± 5e-06	0.0006 ± 5e-06	0.000608 ± 5e-06	0.000617 ± 5e-06	0.000631 ± 5e-06	0.000644 ± 5e-06	0.000658 ± 5e-06	0.000671 ± 5e-06
450000 kPa	0.000587 ± 5e-06	0.000595 ± 5e-06	0.000603 ± 5e-06	0.000612 ± 5e-06	0.000625 ± 5e-06	0.000637 ± 5e-06	0.000649 ± 5e-06	0.000663 ± 5e-06
475000 kPa	0.000582 ± 5e-06	0.00059 ± 5e-06	0.000598 ± 5e-06	0.000606 ± 5e-06	0.000619 ± 5e-06	0.000629 ± 5e-06	0.00064 ± 5e-06	0.000651 ± 5e-06
500000 kPa	0.000579 ± 5e-06	0.000586 ± 5e-06	0.000594 ± 5e-06	0.000602 ± 5e-06	0.000614 ± 5e-06	0.000623 ± 5e-06	0.000633 ± 5e-06	0.000643 ± 5e-06
